Data: ChEMBL document CHEMBL1201862, “PubChem BioAssay data set” (2004)
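The compound was tested at five concentrations on cells cultured in 96-well plates, with a 48-hour exposure period. At the GI50, growth is halved.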 Calls of active or inactive are those of the source. Cut-off read from the data, not from the text of the source: active = GI50 up to about 1.1 µM and inactive = higher.

Legend:
Assay in all cases: DTP human tumour cell line panel, 48 h
OVCAR-4 = tested on: OVCAR-4
SF-295 = tested on: SF-295
RXF 393 = tested on: RXF 393
SK-OV-3 = tested on: SK-OV-3
SK-MEL-2 = tested on: SK-MEL-2
SNB-19 = tested on: SNB-19
HCT-15 = tested on: HCT-15
A549 = tested on: A549
HCT-116 = tested on: HCT-116
ACHN = tested on: ACHN
UACC-257 = tested on: UACC-257
NCI-H226 = tested on: NCI-H226
SR = tested on: SR
OVCAR-8 = tested on: OVCAR-8
K562 = tested on: K562
UACC-62 = tested on: UACC-62

O=C(NN1C(=O)CS(=O)(=O)C1c1cccc(F)c1)c1ccncc1 (stereo not drawn)
GI50 (OVCAR-4): > 100 µM (inactive) | GI50 (SF-295): > 100 µM (inactive) | GI50 (RXF 393): > 100 µM (inactive) | GI50 (SK-OV-3): > 100 µM (inactive) | GI50 (SK-MEL-2): > 100 µM (inactive) | GI50 (SNB-19): > 100 µM (inactive) | GI50 (HCT-15): > 100 µM | GI50 (A549): > 100 µM (inactive) | GI50 (HCT-116): > 100 µM (inactive) | GI50 (ACHN): > 100 µM (inactive) | GI50 (UACC-257): > 100 µM (inactive) | GI50 (NCI-H226): > 100 µM (inactive) | GI50 (SR): > 100 µM (inactive)

Cc1ccc(S(=O)(=O)N/N=C(\C(=O)Nc2cccc([N+](=O)[O-])c2)c2nc3ccc([N+](=O)[O-])cc3nc2O)cc1
GI50 (OVCAR-4): > 100 µM (inactive) | GI50 (SF-295): 29 µM (inactive) | GI50 (RXF 393): > 100 µM (inactive) | GI50 (SK-OV-3): > 100 µM (inactive) | GI50 (SK-MEL-2): > 100 µM (inactive) | GI50 (SNB-19): > 100 µM (inactive) | GI50 (HCT-15): 16.3 µM | GI50 (OVCAR-8): 54.2 µM (inactive) | GI50 (A549): 31.8 µM (inactive) | GI50 (HCT-116): 27.5 µM (inactive) | GI50 (ACHN): 13.8 µM (inactive) | GI50 (UACC-257): 59.8 µM (inactive) | GI50 (NCI-H226): 37.2 µM (inactive) | GI50 (K562): 7.38 µM (inactive) | GI50 (SR): 34 µM (inactive) | GI50 (UACC-62): 25.4 µM (inactive)

COC1(OC)c2ccccc2C2(O)c3ccccc3C(=O)C12 (stereo not drawn)
GI50 (SF-295): 54 µM (inactive) | GI50 (RXF 393): > 100 µM (inactive) | GI50 (SK-OV-3): 70.1 µM (inactive) | GI50 (SK-MEL-2): 38.1 µM (inactive) | GI50 (SNB-19): 74.5 µM (inactive) | GI50 (HCT-15): 25.3 µM | GI50 (OVCAR-8): 39.4 µM (inactive) | GI50 (HCT-116): 70.8 µM (inactive) | GI50 (ACHN): 34.1 µM (inactive) | GI50 (UACC-257): 17.9 µM (inactive) | GI50 (NCI-H226): 27 µM (inactive) | GI50 (K562): 12.6 µM (inactive) | GI50 (SR): 22.9 µM (inactive) | GI50 (UACC-62): 13.6 µM (inactive)

CC(NC(=O)C(=O)N/N=C1\C[C@@H](c2ccccc2)Nc2ccccc21)c1ccccc1 (stereo partly drawn)
GI50 (OVCAR-4): 29.3 µM (inactive) | GI50 (SF-295): > 100 µM (inactive) | GI50 (RXF 393): 53.7 µM (inactive) | GI50 (SK-MEL-2): 53 µM (inactive) | GI50 (SNB-19): > 100 µM (inactive) | GI50 (OVCAR-8): > 100 µM (inactive) | GI50 (A549): > 100 µM (inactive) | GI50 (HCT-116): > 100 µM (inactive) | GI50 (ACHN): 36.1 µM (inactive) | GI50 (UACC-257): 0.382 µM (active) | GI50 (NCI-H226): 10.4 µM (inactive)

O=[N+]([O-])c1nccn1CC(O)c1ccccc1 (stereo not drawn)
GI50 (OVCAR-4): > 100 µM (inactive) | GI50 (SF-295): > 100 µM (inactive) | GI50 (RXF 393): > 100 µM (inactive) | GI50 (SK-OV-3): > 100 µM (inactive) | GI50 (SK-MEL-2): > 100 µM (inactive) | GI50 (SNB-19): > 100 µM (inactive) | GI50 (HCT-15): > 100 µM | GI50 (OVCAR-8): > 100 µM (inactive) | GI50 (A549): > 100 µM (inactive) | GI50 (ACHN): > 100 µM (inactive) | GI50 (UACC-257): > 100 µM (inactive) | GI50 (NCI-H226): > 100 µM (inactive) | GI50 (K562): > 100 µM (inactive) | GI50 (UACC-62): > 100 µM (inactive)

Nc1ccc(C(=O)N/C(=C\c2ccc3c(c2)OCO3)c2nc3ccc4c(c3[nH]2)C(=O)c2ccccc2C4=O)cc1
GI50 (OVCAR-4): 50.5 µM (inactive) | GI50 (SF-295): 41.7 µM (inactive) | GI50 (RXF 393): 10.5 µM (inactive) | GI50 (SK-OV-3): 23.1 µM (inactive) | GI50 (SK-MEL-2): 21.1 µM (inactive) | GI50 (SNB-19): 30 µM (inactive) | GI50 (HCT-15): 42.2 µM | GI50 (OVCAR-8): 29.6 µM (inactive) | GI50 (A549): 21.1 µM (inactive) | GI50 (HCT-116): 23.8 µM (inactive) | GI50 (ACHN): 13.9 µM (inactive) | GI50 (UACC-257): 58.7 µM (inactive) | GI50 (K562): 25.5 µM (inactive) | GI50 (UACC-62): 33.7 µM (inactive)

O=C(Nc1ccccc1)c1ccc(Cl)c([N+](=O)[O-])c1
GI50 (SF-295): 15.3 µM (inactive) | GI50 (RXF 393): 21.7 µM (inactive) | GI50 (SK-OV-3): 23.6 µM (inactive) | GI50 (SK-MEL-2): 13.2 µM (inactive) | GI50 (SNB-19): 15.5 µM (inactive) | GI50 (HCT-15): 7.24 µM | GI50 (OVCAR-8): 9.33 µM (inactive) | GI50 (A549): 20.2 µM (inactive) | GI50 (UACC-257): 15.4 µM (inactive) | GI50 (NCI-H226): 25.2 µM (inactive) | GI50 (K562): 2.96 µM (inactive) | GI50 (UACC-62): 6.68 µM (inactive)

COC(=O)C1=C(C(=O)OC)C2=S(SC3=C2CCCC3)S1 (stereo not drawn)
GI50 (OVCAR-4): 19 µM (inactive) | GI50 (SF-295): 46.1 µM (inactive) | GI50 (RXF 393): 13.3 µM (inactive) | GI50 (SK-OV-3): > 100 µM (inactive) | GI50 (SK-MEL-2): 23.1 µM (inactive) | GI50 (SNB-19): > 100 µM (inactive) | GI50 (HCT-15): 13.3 µM | GI50 (OVCAR-8): 12.9 µM (inactive) | GI50 (A549): 36.1 µM (inactive) | GI50 (ACHN): 28.1 µM (inactive) | GI50 (UACC-257): 37.2 µM (inactive) | GI50 (K562): 4.35 µM (inactive) | GI50 (UACC-62): 26 µM (inactive)

O=C(/C=C\c1cccc2ccccc12)c1ccc(Cl)cc1Cl
GI50 (OVCAR-4): 43.6 µM (inactive) | GI50 (SF-295): 20.5 µM (inactive) | GI50 (SK-OV-3): > 100 µM (inactive) | GI50 (SNB-19): 28.8 µM (inactive) | GI50 (HCT-15): 13.7 µM | GI50 (OVCAR-8): 18.7 µM (inactive) | GI50 (A549): 62.1 µM (inactive) | GI50 (HCT-116): 18.7 µM (inactive) | GI50 (ACHN): 18.6 µM (inactive) | GI50 (UACC-257): 27 µM (inactive) | GI50 (NCI-H226): > 100 µM (inactive) | GI50 (K562): 18.9 µM (inactive) | GI50 (UACC-62): 16.7 µM (inactive)

CC(C)(C)c1cc(O)c2c(c1O)C(=O)CCC2
GI50 (OVCAR-4): 30.2 µM (inactive) | GI50 (SF-295): 30.2 µM (inactive) | GI50 (RXF 393): 19.1 µM (inactive) | GI50 (SK-OV-3): 40.5 µM (inactive) | GI50 (SNB-19): 32.7 µM (inactive) | GI50 (HCT-15): 40.8 µM | GI50 (OVCAR-8): 36.7 µM (inactive) | GI50 (A549): 35.9 µM (inactive) | GI50 (HCT-116): 31.7 µM (inactive) | GI50 (ACHN): 50.2 µM (inactive) | GI50 (UACC-257): 29.4 µM (inactive) | GI50 (K562): 30.3 µM (inactive) | GI50 (UACC-62): 26 µM (inactive)
